Measured values taken from patent publication US20180282271A1, “ANTIBIOTIC AMINO ACID MIMETICS” (priority 2017, published 2018).
≈ marks a conversion by molar mass, not a printed value.

Key:
[1] = system: Escherichia coli MMX 102/ATCC 25922; conditions: CLSI QC ranges shown in parenthesis; cited from earlier work
[2] = system: Pseudomonas aeruginosa MMX 103/ATCC 27853; conditions: CLSI QC ranges shown in parenthesis; cited from earlier work
[3] = system: Staphylococcus aureus MMX 100/ATCC 29213; conditions: CLSI QC ranges shown in parenthesis; cited from earlier work
[4] = system: Streptococcus pneumoniae MMX 1195/ATCC 49619; experiment: Broth microdilution MIC, standard CLSI media, ATCC QC organism; assay type: cell-based
Protocol: (§1) The test organisms were originally received from clinical sources or from the American Type Culture Collection (ATCC, Manassas, Va.). When received, the organisms were subcultured onto an appropriate agar medium. Following incubation, colonies were harvested from the plate and a cell suspension was prepared in broth containing cryoprotectant and frozen at −80° C. Prior to the assay, a frozen vial of the culture was partially thawed and the contents were streaked for isolation onto an appropriate growth medium. The agar plates were incubated overnight at 35° C. Test organisms included staphylococci and enterococci (Table 1), streptococci (Table 2), Enterobacteriaceae (Table 3), lactose non-fermenting Gram-negative bacilli (Table 4), Haemophilus influenzae (Table 5), Neisseria gonorrhoeae (Table 5), and Clostridium difficile (Table 6).
(§2) The standard CLSI broth medium was employed for the purposes of quality control of the comparator drugs for the MIC assay and was only used for testing of relevant ATCC quality control isolates as established by CLSI (1-5).
(§3) MIC values were determined using a broth microdilution method as recommended by CLSI (1-5).
(§4) Column 1 was filled with 300 μL of the investigational and control agents at the appropriate stock concentration (40× of the highest test concentration). The Biomek 2000 was used to make eleven 2-fold serial dilutions to create a “mother plate.” The wells of column 12 contained no drug and served as growth control wells.
(§5) The daughter plates were prepared on the Biomek FX instrument which transferred 5 μL of drug solution from each well of the mother plate to the corresponding well of each daughter plate in a single step.
(§6) Standardized inoculum of each organism was prepared per CLSI methods (1-5). The inoculum for each organism was dispensed into sterile reservoirs divided by length (Beckman Coulter), and the Biomek 2000 was used to inoculate the plates. Daughter plates were placed on the Biomek 2000 work surface reversed so that inoculation took place from low to high drug concentration. The Biomek 2000 delivered 10 PL of standardized inoculum into each well resulting in a target inoculum size of approximately 5×10^5 CFU/mL. The wells of the daughter plates ultimately contained 185 μL of media, 5 μL of drug solution at 40× the test concentration, and 10 μL of bacterial inoculum prepared in media.
(§7) Plates were stacked 3-4 high, covered with a lid on the top plate, placed into plastic bags, and incubated at 35° C. under the appropriate conditions, with C. difficile incubated anaerobically. Plates were viewed post-incubation at 18-24 hr and again at 48 hr from the bottom using a plate viewer. […] MICs were read where visible growth of the organism was inhibited.

[5] = system: Escherichia coli MMX 102/ATCC 25922; experiment: as above; assay type: cell-based
Protocol: as §1, §2, §3, §4, §5, §6, §7

[6] = system: Neisseria gonorrhoeae MMX 683/ATCC 49226; experiment: as above; assay type: cell-based
Protocol: as §1, §2, §3, §4, §5, §6, §7

[7] = system: Haemophilus influenzae MMX 1224/ATCC 49247; experiment: as above; assay type: cell-based
Protocol: as §1, §2, §3, §4, §5, §6, §7

[8] = system: Staphylococcus aureus MMX 100/ATCC 29213; experiment: as above; assay type: cell-based
Protocol: as §1, §2, §3, §4, §5, §6, §7

[9] = system: Enterococcus faecalis MMX 101/ATCC 29212; experiment: as above; assay type: cell-based
Protocol: as §1, §2, §3, §4, §5, §6, §7

[10] = system: Pseudomonas aeruginosa MMX 103/ATCC 27853; experiment: as above; assay type: cell-based
Protocol: as §1, §2, §3, §4, §5, §6, §7

[11] = system: Haemophilus influenzae MMX 1224/ATCC 49247; conditions: CLSI QC ranges shown in parenthesis; cited from earlier work
[12] = system: Streptococcus pneumoniae MMX 1195/ATCC 49619; conditions: CLSI QC ranges shown in parenthesis; cited from earlier work
[13] = system: Clostridium difficile MMX 4381/ATCC 700057; experiment: Broth microdilution MIC, standard CLSI media, ATCC QC organism; assay type: cell-based; conditions: Clostridioides difficile, ATCC700057, 48 hr results
Protocol: as §1, §2, §3, §4, §5, §6, §7

[14] = system: Enterococcus faecalis MMX 101/ATCC 29212; conditions: CLSI QC ranges shown in parenthesis; cited from earlier work

Compound	CLSI QC range of MIC [1]	CLSI QC range of MIC [2]	CLSI QC range of MIC [3]	MIC ([4]; ATCC49619, 24 hr results) [µg/mL]	MIC ([4]; ATCC49619, 48 hr results) [µg/mL]	MIC ([5]; ATCC25922, 24 hr results) [µg/mL]	MIC ([5]; ATCC25922, 48 hr results) [µg/mL]	MIC ([6]; ATCC49226, 24 hr results) [µg/mL]	MIC ([6]; ATCC49226, 48 hr results) [µg/mL]	MIC ([7]; ATCC49247, 24 hr results) [µg/mL]	MIC ([7]; ATCC49247, 48 hr results) [µg/mL]	MIC ([8]; ATCC29213, 24 hr results) [µg/mL]	MIC ([8]; ATCC29213, 48 hr results) [µg/mL]	MIC ([9]; ATCC29212, 24 hr results) [µg/mL]	MIC ([9]; ATCC29212, 48 hr results) [µg/mL]	MIC ([10]; ATCC27853, 24 hr results) [µg/mL]	MIC ([10]; ATCC27853, 48 hr results) [µg/mL]	also measured
CO/N=C(\C(=O)N[C@@H]1C(=O)N2C(C(=O)[O-])=C(C[N+]3(C)CCCC3)CS[C@H]12)c1csc(N)n1 [FEP, cefepime]	(0.06-0.5) μg/mL	(1-4) μg/mL	(4-16) μg/mL	0.5 (≈ 1.04 µM)	0.5 (≈ 1.04 µM)	0.25 (≈ 0.52 µM)	0.25 (≈ 0.52 µM)	16 (≈ 33.3 µM)	32 (≈ 66.6 µM)	0.25 (≈ 0.52 µM)	0.25 (≈ 0.52 µM)	16 (≈ 33.3 µM)	16 (≈ 33.3 µM)	> 64	> 64	1 (≈ 2.08 µM)	2 (≈ 4.16 µM)	CLSI QC range of MIC [11]: (0.12-1) μg/mL
C[C@@H](O)[C@H]1C(=O)N2C(C(=O)O)=C(S[C@@H]3CN[C@H](C(=O)N(C)C)C3)[C@H](C)[C@H]12 [MEM, meropenem]	(0.008-0.06) μg/mL	(0.25-1) μg/mL	(0.03-0.12) μg/mL	0.06 (≈ 0.156 µM)	0.06 (≈ 0.156 µM)	0.03 (≈ 0.0782 µM)	0.03 (≈ 0.0782 µM)	> 4	> 4	0.06 (≈ 0.156 µM)	0.06 (≈ 0.156 µM)	0.06 (≈ 0.156 µM)	0.12 (≈ 0.313 µM)	4 (≈ 10.4 µM)	> 4	0.5 (≈ 1.3 µM)	1 (≈ 2.61 µM)	CLSI QC range of MIC [12]: (0.03-0.25) μg/mL; MIC [13]: 1 µg/mL (≈ 2.61 µM); CLSI QC range of MIC [14]: (2-8) μg/mL
